Results from patent US20100168100A1, “QUINOLINE DERIVATIVES AS P13 KINASE INHIBITORS” (SMITHKLINE BEECHAM CORPORATION, priority 2007, published 2010).

Biological target: T1, PI3Kα (Homo sapiens, UniProt P42336)
T1 construct: His
Experiment: PI3K Alpha Leadseeker SPA Assay
Format: biochemical
Conditions: in at least one experimental run; read-out: IC50 against PI3Kα
Description: PI3K Alpha Leadseeker SPA Assay
Compounds of the present invention were tested according to the following assays and found as inhibitors of PI3 kinases, particularly PI3Kα. The exemplified compounds were tested and found active against PI3Kα. The IC50's ranged from about 1 nM to 10 μM.
SPA imaging beads are microspheres containing scintillant which emit light in the red region of the visible spectrum. As a result, these beads are ideally suited to use with a CCD imager such as the Viewlux. The Leadseeker beads used in this system are polystyrene beads that have been coupled with polyethyleneimine. When added to the assay mixture, the beads absorb both the substrate (PIP2) and product (PIP3). Adsorbed P^33-PIP3 will cause an increase in signal, measured as ADUs (analog to digital units). This protocol details the use of the PEI-PS Leadseeker beads for assays using His-p110/p85 PI3K alpha.
Solid compounds are typically plated with 0.1 μl of 100% DMSO in all wells (except column 6 and 18) of a 384-well, flat bottom, low volume plate (Greiner 784075). The compounds are serially diluted (3-fold in 100% DMSO) across the plate from column 1 to column 12 and column 13 to column 24 and leave column 6 and 18 containing only DMSO to yield 11 concentrations for each test compound.
The assay buffer contains MOPS (pH 6.5), CHAPS, and DTT. PI3K alpha and PIP2 (L-alpha-D-myo-Phosphatidylinositol 4,5-bisphosphate [PI(4,5)P2]3-O-phospho linked, D(+)-sn-1,2-di-O-octanoylglyceryl, CellSignals #901) are mixed and incubated in the plate with compound for 30 min prior to starting the reaction with the addition of P^33-ATP and MgCl2 (reagents added using Zoom). Enzyme-free wells (column 18) are typically done to determine the low control. PEI-PS Leadseeker beads in PBS/EDTA/CHAPS are added (by Multidrop) to quench the reaction, and the plates are allowed to incubate for at least one hour (typically overnight) before centrifugation. The signal is determined using a Viewlux detector and is then imported into curve fitting software (Activity Base) for construction of concentration response curves. The percent inhibition of activity is calculated relative to high controls (C1, 0.1 μl DMSO in column 6, rows A-P)) and low controls (C2, 5 μl of 40 uM PIP2 in buffer in column 18, rows A-P) using, 100*(1-(U1-C2)/(C1-C2)). The concentration of test compound yielding 50% inhibition is determined using the equation, y=((Vmax*x)/(K+x))+Y2, where “K” is equal to the IC50. The IC50 values are converted to pIC50 values, i.e., −log IC50 in Molar concentration.

T1 sequence (P42336 whole entry): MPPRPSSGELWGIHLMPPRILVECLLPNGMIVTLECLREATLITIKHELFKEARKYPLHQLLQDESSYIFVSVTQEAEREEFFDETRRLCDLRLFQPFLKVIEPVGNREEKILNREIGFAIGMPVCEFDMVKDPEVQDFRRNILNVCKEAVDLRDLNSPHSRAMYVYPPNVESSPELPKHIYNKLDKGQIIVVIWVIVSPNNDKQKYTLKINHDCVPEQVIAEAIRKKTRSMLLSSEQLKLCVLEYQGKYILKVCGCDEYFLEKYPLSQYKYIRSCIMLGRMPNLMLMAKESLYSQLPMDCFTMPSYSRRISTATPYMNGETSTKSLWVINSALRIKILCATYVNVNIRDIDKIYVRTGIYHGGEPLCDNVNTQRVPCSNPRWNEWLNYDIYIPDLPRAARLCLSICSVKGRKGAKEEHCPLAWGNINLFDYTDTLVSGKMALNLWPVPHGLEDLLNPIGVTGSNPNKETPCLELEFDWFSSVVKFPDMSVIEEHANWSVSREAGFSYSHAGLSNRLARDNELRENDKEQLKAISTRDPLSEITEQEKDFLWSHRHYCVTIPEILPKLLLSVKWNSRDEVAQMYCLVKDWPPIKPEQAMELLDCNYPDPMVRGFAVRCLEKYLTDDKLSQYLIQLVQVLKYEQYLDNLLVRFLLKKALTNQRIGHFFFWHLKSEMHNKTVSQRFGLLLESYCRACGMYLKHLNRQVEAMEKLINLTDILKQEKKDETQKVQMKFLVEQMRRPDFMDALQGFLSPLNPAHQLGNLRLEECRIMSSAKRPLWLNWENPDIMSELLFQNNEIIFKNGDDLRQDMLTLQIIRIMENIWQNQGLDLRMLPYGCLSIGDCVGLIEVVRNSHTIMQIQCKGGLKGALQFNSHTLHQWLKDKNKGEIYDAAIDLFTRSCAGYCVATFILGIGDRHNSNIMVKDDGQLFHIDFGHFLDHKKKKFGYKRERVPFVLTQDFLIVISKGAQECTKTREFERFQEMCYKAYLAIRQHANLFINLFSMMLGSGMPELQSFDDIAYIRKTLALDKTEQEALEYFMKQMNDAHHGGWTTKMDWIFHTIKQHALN
T1 sequence (P27986 whole entry partner): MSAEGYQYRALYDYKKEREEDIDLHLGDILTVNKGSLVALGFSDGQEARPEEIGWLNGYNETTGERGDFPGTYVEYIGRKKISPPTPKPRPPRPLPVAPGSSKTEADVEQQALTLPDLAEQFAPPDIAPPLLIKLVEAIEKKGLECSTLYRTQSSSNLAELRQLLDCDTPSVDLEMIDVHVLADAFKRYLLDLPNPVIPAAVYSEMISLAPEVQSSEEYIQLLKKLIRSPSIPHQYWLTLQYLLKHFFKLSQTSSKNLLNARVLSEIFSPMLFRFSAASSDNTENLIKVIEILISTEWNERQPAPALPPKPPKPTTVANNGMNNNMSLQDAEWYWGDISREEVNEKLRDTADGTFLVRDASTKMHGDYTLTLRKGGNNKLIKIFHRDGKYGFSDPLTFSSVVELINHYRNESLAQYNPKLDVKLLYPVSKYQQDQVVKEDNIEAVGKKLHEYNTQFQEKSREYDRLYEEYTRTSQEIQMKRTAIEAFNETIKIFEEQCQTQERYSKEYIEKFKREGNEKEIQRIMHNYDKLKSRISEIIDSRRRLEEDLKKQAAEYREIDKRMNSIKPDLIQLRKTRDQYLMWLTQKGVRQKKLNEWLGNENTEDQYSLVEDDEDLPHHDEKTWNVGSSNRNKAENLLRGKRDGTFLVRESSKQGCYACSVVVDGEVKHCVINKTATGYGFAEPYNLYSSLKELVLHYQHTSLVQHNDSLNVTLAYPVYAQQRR

IC50 [µM]	Compound
1	c1cc(-c2ccnc3ccc(-c4nc5ncncc5[nH]4)cc23)ccn1 [Example 224]
0.0079	NC(=O)Cn1cc(-c2ccnc3ccc(-c4cncc(S(=O)(=O)Nc5ccc(F)cc5F)c4)cc23)cn1 [Example 263]
0.0008	Cc1ccccc1S(=O)(=O)Nc1cc(-c2ccc3nccc(-c4ccncc4)c3c2)cnc1Cl [Example 252]
0.0025	COc1ncc(-c2ccc3nccc(C4CCCC4)c3c2)cc1NS(=O)(=O)c1ccccc1 [Example 289]
0.0016	O=S(=O)(Nc1cc(-c2ccc3nccc(-c4ccncc4)c3c2)c[n+]([O-])c1Cl)c1ccccc1 [Example 249]
0.316	CC1=Nc2ccc(-c3ccc4nccc(-c5ccncc5)c4c3)cc2S(=O)(=O)N1 [Example 154]
0.079	c1cc(-c2ccnc3ccc(-c4ccc5[nH]ncc5c4)cc23)ccn1 [Example 156]

Biological target: CK2 protein kinase (Homo sapiens, UniProt P68400)
Experiment: not given
Conditions: cited from earlier work

Sequence of CK2 protein kinase (P68400 whole entry): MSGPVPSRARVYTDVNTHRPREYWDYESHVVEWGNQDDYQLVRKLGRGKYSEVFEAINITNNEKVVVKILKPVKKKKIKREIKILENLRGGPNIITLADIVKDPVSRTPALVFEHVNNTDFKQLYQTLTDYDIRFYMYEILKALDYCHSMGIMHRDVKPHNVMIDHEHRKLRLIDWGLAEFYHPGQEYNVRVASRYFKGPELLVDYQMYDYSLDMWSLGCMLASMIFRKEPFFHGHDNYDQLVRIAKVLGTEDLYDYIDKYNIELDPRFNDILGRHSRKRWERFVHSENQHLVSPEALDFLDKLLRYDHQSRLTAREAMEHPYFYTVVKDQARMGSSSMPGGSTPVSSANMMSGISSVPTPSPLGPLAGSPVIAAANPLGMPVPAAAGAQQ

Compound	IC50 [µM]
O=c1cc(N2CCOCC2)oc2c(-c3ccccc3)cccc12 [LY294002]	5 to 10
